Data reported in US6790839B2, “Pharmaceutical administration of adenosine agonists” (Can-Fite Biopharma Ltd., priority 1999, dated 2004).
“Also recorded” adds a separate entry of the source.

Columns and labels:
[1] = tested on: white blood cells (WBC) and neutrophils; experiment: In vivo protection against myelotoxic effects of chemotherapy: blood cell count (Coulter counter, differential counts); parameters: species or system ICR mice; conditions: for Neutrophils (no.) / WBC (no.): blood, CPA 6 μg/kg per os 48 h and 72 h where given; for Neutrophils (no.): control level 1200; for WBC (no.): control level 6100
Experimental: Male ICR mice of the age of two months and weighing an average of 25 gr were employed. The mice were purchased from Harlan Laboratories, Jerusalem, […]. Protection of CPA-treated mice against myelotoxic effects of chemotherapy was evaluated. To this end, mice were provided with a chemotherapeutic drug, a combination of the drug with CPA or with a vehicle only. […] In particular, three test groups of mice were treated daily according to the following regimen: 1. Control group-vehicle only. 2. Chemotherapy-CYP (50 mg/kg body weight). 3. Chemotherapy+chemoprotection-CYP (50 mg/kg body weight)+CPA (6 μg/kg body weight, given through per os administration, 48 h and 72 h following chemotherapy treatment). To test the myeloprotective effect of CPA, blood samples were withdrawn from the above-mentioned groups 96 h, 120 h and 144 h following treatment with CYP, the following measurements were taken. Blood cell count-Blood cell count was carried out in a Coulter counter and differential cell counts were performed on smear preparations stained with May-Grunvald-Giemsa solution. Serum was separated from the whole blood and was kept at -70° C.

G-CSF = experiment: In vivo serum G-CSF level by ELISA after chemotherapy; parameters: species or system ICR mice; conditions: for G-CSF (pgr/ml): serum, CPA 6 μg/kg per os 48 h and 72 h after chemotherapy where given, male ICR mice
Experimental: Male ICR mice of the age of two months and weighing an average of 25 gr were employed. The mice were purchased from Harlan Laboratories, Jerusalem, […]. Protection of CPA-treated mice against myelotoxic effects of chemotherapy was evaluated. To this end, mice were provided with a chemotherapeutic drug, a combination of the drug with CPA or with a vehicle only. […] In particular, three test groups of mice were treated daily according to the following regimen: 1. Control group-vehicle only. 2. Chemotherapy-CYP (50 mg/kg body weight). 3. Chemotherapy+chemoprotection-CYP (50 mg/kg body weight)+CPA (6 μg/kg body weight, given through per os administration, 48 h and 72 h following chemotherapy treatment). To test the myeloprotective effect of CPA, blood samples were withdrawn from the above-mentioned groups 96 h, 120 h and 144 h following treatment with CYP, the following measurements were taken. G-CSF level-granulocyte colony stimulating factor (G-CSF) level in the serum was determined by the use of a commercial ELISA kit (R&D Systems). G-CSF activity was expressed in pgr/ml according to a standard curve of recombinant G-CSF supplied by R&D Systems.

bone marrow cells [2] = experiment: Bone marrow cell proliferation in vitro ([3H]-thymidine incorporation assay); format: cell-based, C57BL/6J mice
Experimental: All drugs were purchased from Sigma Chemical Co. St. Louis, Mo. Adenosine was dissolved in water and kept as a stock solution in a concentration of 1 mM. For in vitro studies, dilutions in RPMI medium were carried out and final concentrations of 100, 50, 25, 10 and 5 μM were used. For in vivo studies, the stock solution was diluted with PBS to a concentration of […] and 0.5 ml was injected intraperitoneally to mice. 1,3-dipropyl-8-cyclopentylxanthine (DPCPX), an adenosine A1 receptor antagonist, 3,7-dimethyl-1-propargyl-xanthine (DMPX) an A2 receptor antagonist and N-cyclopentyladenosine (CPA), a selective A1 receptor agonist were added to a culture of proliferating bone marrow cells.
Bone marrow cells were obtained from the femur of C57BL/6J mice. Cells were disaggregated by passing through a 25G needle. [^3H]-Thymidine incorporation assay was used to evaluate the proliferative capability of the bone marrow cells.
Cells (3×10^4/well were incubated with RPMI medium, containing 10% fetal calf serum (FCS) (Biological Industries, Beit Haemek, Israel) and adenosine, adenosine antagonists or the agonist in 96 microtiter plates for 48 h. Cultures containing cells were suspended in RPMI medium and 10% FCS served as controls. In the last 6 hours of incubation, each well was pulsed with 1 μCi [^3H]-thymidine. Cells were harvested and the ^3[H]-thymidine uptake was determined in an LKB liquid scintillation counter (LKB, Piscataway, N.J., USA).

bone marrow cells [3] = conditions: adenosine 10-50 μM, concentration dependent; cited from earlier work

OC[C@H]1O[C@@H](n2cnc3c(NC4CCCC4)ncnc32)[C@H](O)[C@@H]1O [CPA, N-cyclopentyladenosine]
in vivo protection against myelotoxicity of chemotherapeutic drugs ([1]; mice given CYP 50 mg/kg, CPA 6 μg/kg per os): provides in vivo protection against myelotoxicity; also recorded: acts as a chemoprotective agent
level of G-CSF (summary in words) (G-CSF; combined treatment versus CYP only, CPA given orally to mice): induces in vivo G-CSF production
stimulation of bone marrow cell proliferation (bone marrow cells [2]; concentrations of 0.1 and 0.01 μM, FIG 2): statistically significant stimulation

O=P1(N(CCCl)CCCl)NCCCO1 (stereo not shown) [CYP, cyclophosphamide]
number of leukocytes and neutrophils (summary in words) ([1]; CYP only versus control, combined treatment versus CYP only): reduce significantly
Neutrophils (no.) ([1]; 96 hrs after CYP 50 mg/kg): 377 no.
WBC (no.) ([1]; 96 hrs after CYP 50 mg/kg): 2620 no.
Neutrophils (no.) ([1]; 120 hrs after CYP 50 mg/kg): 490 no.
WBC (no.) ([1]; 120 hrs after CYP 50 mg/kg): 2800 no.
Neutrophils (no.) ([1]; 144 hrs after CYP 50 mg/kg): 1326 no.
WBC (no.) ([1]; 144 hrs after CYP 50 mg/kg): 3900 no.
G-CSF (pgr/ml) (G-CSF; 96 hrs after CYP 50 mg/kg): 511.30 pgr/ml
G-CSF (pgr/ml) (G-CSF; 120 hrs after CYP 50 mg/kg): 333.03 pgr/ml
G-CSF (pgr/ml) (G-CSF; 144 hrs after CYP 50 mg/kg): 871.14 pgr/ml

C#CCn1c(=O)c2c(ncn2C)n(C)c1=O [DMPX, 3,7-dimethyl-1-propargyl-xanthine]
effect on bone marrow cell proliferation (bone marrow cells [2]; 0.1 μM, given without or with adenosine, FIG 1): induced a stimulatory effect

CCCn1c(=O)c2[nH]c(C3CCCC3)nc2n(CCC)c1=O [DPCPX, 1,3-dipropyl-8-cyclopentylxanthine]
effect on adenosine-stimulated bone marrow cell proliferation (bone marrow cells [2]; 0.1 μM, with adenosine, FIG 1): significantly reversed the stimulatory effect of adenosine

Nc1ncnc2c1ncn2[C@@H]1O[C@H](CO)[C@@H](O)[C@H]1O [adenosine]
3[H]-thymidine incorporation of bone marrow cells (bone marrow cells [3]): stimulated
